The NIST ThermoML archive (doi:10.1021/je900596d)

Settings: for mass density: Vibrating tube method; for vapor or sublimation pressure: Closed cell (Static) method

FC(F)=C(F)C(F)(F)F [hexafluoropropene]
Settings	mass density [kg/m3]
355.27 K, 1594.4 kPa, Fluid (supercritical or subcritical phases)	103.05
355.27 K, 1615.6 kPa, Fluid (supercritical or subcritical phases)	104.91
355.27 K, 1637.4 kPa, Fluid (supercritical or subcritical phases)	106.88
355.27 K, 1658.5 kPa, Fluid (supercritical or subcritical phases)	108.66
355.27 K, 1679.5 kPa, Fluid (supercritical or subcritical phases)	110.49
355.27 K, 1700.6 kPa, Fluid (supercritical or subcritical phases)	112.4
355.27 K, 1722 kPa, Fluid (supercritical or subcritical phases)	114.41
355.27 K, 1742.9 kPa, Fluid (supercritical or subcritical phases)	116.28
355.27 K, 1765.2 kPa, Fluid (supercritical or subcritical phases)	118.41
355.27 K, 1787.1 kPa, Fluid (supercritical or subcritical phases)	120.47
355.27 K, 1808.3 kPa, Fluid (supercritical or subcritical phases)	122.49
355.27 K, 1829.9 kPa, Fluid (supercritical or subcritical phases)	124.54
355.27 K, 1850.6 kPa, Fluid (supercritical or subcritical phases)	126.59
355.27 K, 1872.5 kPa, Fluid (supercritical or subcritical phases)	128.81
355.27 K, 1894.5 kPa, Fluid (supercritical or subcritical phases)	131.08
355.27 K, 1916.5 kPa, Fluid (supercritical or subcritical phases)	133.35
355.27 K, 1938.7 kPa, Fluid (supercritical or subcritical phases)	135.65
355.27 K, 1959.7 kPa, Fluid (supercritical or subcritical phases)	137.89
355.27 K, 1982.8 kPa, Fluid (supercritical or subcritical phases)	140.34
355.27 K, 2005.5 kPa, Fluid (supercritical or subcritical phases)	142.79
355.27 K, 2026.6 kPa, Fluid (supercritical or subcritical phases)	145.09
355.27 K, 2048.1 kPa, Fluid (supercritical or subcritical phases)	147.46
355.27 K, 2070.2 kPa, Fluid (supercritical or subcritical phases)	150.03
355.27 K, 2091.7 kPa, Fluid (supercritical or subcritical phases)	152.48
355.27 K, 2135.3 kPa, Fluid (supercritical or subcritical phases)	157.72
355.27 K, 2158.3 kPa, Fluid (supercritical or subcritical phases)	160.53
355.27 K, 2179.4 kPa, Fluid (supercritical or subcritical phases)	163.15
355.27 K, 2202.1 kPa, Fluid (supercritical or subcritical phases)	165.99
355.27 K, 2224 kPa, Fluid (supercritical or subcritical phases)	168.96
355.27 K, 2247.3 kPa, Fluid (supercritical or subcritical phases)	172.07
355.27 K, 2269.2 kPa, Fluid (supercritical or subcritical phases)	174.95
355.27 K, 2292 kPa, Fluid (supercritical or subcritical phases)	178.14
355.27 K, 2312.5 kPa, Fluid (supercritical or subcritical phases)	181.03
355.27 K, 2334.2 kPa, Fluid (supercritical or subcritical phases)	184.18
355.27 K, 2357.3 kPa, Fluid (supercritical or subcritical phases)	187.61
355.27 K, 2380.5 kPa, Fluid (supercritical or subcritical phases)	191.26
355.27 K, 2392.5 kPa, Fluid (supercritical or subcritical phases)	193.1
355.27 K, 2415.5 kPa, Fluid (supercritical or subcritical phases)	196.68
355.27 K, 2439.9 kPa, Fluid (supercritical or subcritical phases)	200.64
355.27 K, 2460.5 kPa, Fluid (supercritical or subcritical phases)	204.27
355.27 K, 2484.5 kPa, Fluid (supercritical or subcritical phases)	208.35
355.27 K, 2507 kPa, Fluid (supercritical or subcritical phases)	212.34
355.27 K, 2520.2 kPa, Fluid (supercritical or subcritical phases)	214.82
355.27 K, 2544.4 kPa, Fluid (supercritical or subcritical phases)	219.44
355.27 K, 2556.6 kPa, Fluid (supercritical or subcritical phases)	221.88
355.27 K, 2578.3 kPa, Fluid (supercritical or subcritical phases)	226.29
355.27 K, 2599.8 kPa, Fluid (supercritical or subcritical phases)	230.72
355.27 K, 2622.7 kPa, Fluid (supercritical or subcritical phases)	235.78
355.27 K, 2645.2 kPa, Fluid (supercritical or subcritical phases)	240.85
355.27 K, 2666.2 kPa, Fluid (supercritical or subcritical phases)	245.89
355.27 K, 2688.5 kPa, Fluid (supercritical or subcritical phases)	251.47
355.27 K, 2710.9 kPa, Fluid (supercritical or subcritical phases)	257.56
355.27 K, 2733.3 kPa, Fluid (supercritical or subcritical phases)	263.91
355.27 K, 2754.7 kPa, Fluid (supercritical or subcritical phases)	270.59
355.27 K, 2776.5 kPa, Fluid (supercritical or subcritical phases)	277.69
355.27 K, 2797.6 kPa, Fluid (supercritical or subcritical phases)	285.33
355.27 K, 2818.7 kPa, Fluid (supercritical or subcritical phases)	293.63
355.27 K, 2839.2 kPa, Fluid (supercritical or subcritical phases)	302.86
355.27 K, 2859.6 kPa, Fluid (supercritical or subcritical phases)	313.18
355.27 K, 2880.7 kPa, Fluid (supercritical or subcritical phases)	325.44
355.27 K, 2900.2 kPa, Fluid (supercritical or subcritical phases)	339.29
355.27 K, 2901.3 kPa, Fluid (supercritical or subcritical phases)	340.48
355.27 K, 2902.9 kPa, Fluid (supercritical or subcritical phases)	341.95
355.27 K, 2904 kPa, Fluid (supercritical or subcritical phases)	342.82
355.27 K, 2905.6 kPa, Fluid (supercritical or subcritical phases)	344.36
355.27 K, 2906.7 kPa, Fluid (supercritical or subcritical phases)	345.34
355.27 K, 2908.4 kPa, Fluid (supercritical or subcritical phases)	347.2
355.27 K, 2909.4 kPa, Fluid (supercritical or subcritical phases)	348.62
355.27 K, 2910.6 kPa, Fluid (supercritical or subcritical phases)	349.91
355.27 K, 2911.7 kPa, Fluid (supercritical or subcritical phases)	352.16
355.27 K, 2913.4 kPa, Fluid (supercritical or subcritical phases)	357.67
355.27 K, 2914.7 kPa, Fluid (supercritical or subcritical phases)	388.98
355.27 K, 2915.5 kPa, Fluid (supercritical or subcritical phases)	400.54
357.01 K, 3028.5 kPa, Liquid	789.77
357.01 K, 3030.8 kPa, Liquid	791.93
357.01 K, 3032.9 kPa, Liquid	793.76
357.01 K, 3035 kPa, Liquid	795.08
357.01 K, 3037.1 kPa, Liquid	796.63
357.01 K, 3039.5 kPa, Liquid	798.44
357.01 K, 3041.7 kPa, Liquid	799.96
357.01 K, 3044 kPa, Liquid	801.6
357.01 K, 3046 kPa, Liquid	802.75
357.01 K, 3052 kPa, Liquid	806.74
357.01 K, 3055.7 kPa, Liquid	808.82
357.01 K, 3059.3 kPa, Liquid	810.72
357.01 K, 3062.9 kPa, Liquid	812.63
357.01 K, 3066.3 kPa, Liquid	814.7
357.01 K, 3069.9 kPa, Liquid	816.53
357.01 K, 3073.4 kPa, Liquid	818.11
357.01 K, 3077.1 kPa, Liquid	819.71
357.01 K, 3081.1 kPa, Liquid	821.77
357.01 K, 3084.7 kPa, Liquid	823.28
357.01 K, 3088.4 kPa, Liquid	824.79
357.01 K, 3095.6 kPa, Liquid	828.01
357.01 K, 3097.6 kPa, Liquid	828.88
357.01 K, 3104.3 kPa, Liquid	831.16
357.01 K, 3114.1 kPa, Liquid	834.77
357.01 K, 3123.9 kPa, Liquid	838.1
357.01 K, 3133.7 kPa, Liquid	841.6
357.01 K, 3153.7 kPa, Liquid	847.97
357.01 K, 3163.8 kPa, Liquid	850.53
357.01 K, 3173.8 kPa, Liquid	853.47
357.01 K, 3184.9 kPa, Liquid	856.37
357.01 K, 3195 kPa, Liquid	858.9
357.01 K, 3205.2 kPa, Liquid	861.29
357.01 K, 3230.2 kPa, Liquid	866.99
357.01 K, 3243.1 kPa, Liquid	869.66
357.01 K, 3256.4 kPa, Liquid	872.23
357.01 K, 3269.5 kPa, Liquid	874.91
357.01 K, 3282.6 kPa, Liquid	877.54
357.01 K, 3295.4 kPa, Liquid	879.85
357.01 K, 3307.9 kPa, Liquid	882.22
357.01 K, 3320.3 kPa, Liquid	884.31
357.01 K, 3334 kPa, Liquid	886.47
357.01 K, 3347.2 kPa, Liquid	888.84
357.01 K, 3373.4 kPa, Liquid	892.84
357.01 K, 3387.8 kPa, Liquid	895.05
357.01 K, 3400.4 kPa, Liquid	896.81
357.01 K, 3418.8 kPa, Liquid	899.41
357.01 K, 3438.2 kPa, Liquid	902.07
357.01 K, 3457.5 kPa, Liquid	904.69
357.01 K, 3477.9 kPa, Liquid	907.3
357.01 K, 3514.9 kPa, Liquid	911.85
357.01 K, 3540.5 kPa, Liquid	914.94
357.01 K, 3590.4 kPa, Liquid	920.73
357.01 K, 3614.6 kPa, Liquid	923.49
357.01 K, 3639.2 kPa, Liquid	926.14
357.01 K, 3664.9 kPa, Liquid	928.77
357.01 K, 3689.5 kPa, Liquid	931.28
357.01 K, 3714.8 kPa, Liquid	933.72
357.01 K, 3740.1 kPa, Liquid	936.03
357.01 K, 3764.8 kPa, Liquid	938.27

Liquid
Settings	vapor or sublimation pressure [kPa]
356.24 K	2965.3
356.76 K	2998.5
